Data published in ChEMBL document CHEMBL1201862, “PubChem BioAssay data set” (2004).
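48-hour exposure; five concentrations; linearly interpolated endpoints. Here, GI50 denotes the concentration required for 50% inhibition of growth.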 The source made the active and inactive calls. No stated cut-off is given here; in the data, active = GI50 up to about 1.1 µM and inactive = higher.

Tests used:
Assay in all cases: NCI anticancer screen, dose series, 48 h
786-0 = tested on: 786-0
A498 = tested on: A498
A549 = tested on: A549
ACHN = tested on: ACHN
BT-549 = tested on: BT-549
CAKI-1 = tested on: CAKI-1
CCRF-CEM = tested on: CCRF-CEM
COLO 205 = tested on: COLO 205
DU-145 = tested on: DU-145
EKVX = tested on: EKVX
HCC 2998 = tested on: HCC 2998
HCT-116 = tested on: HCT-116
HCT-15 = tested on: HCT-15
HL-60 = tested on: HL-60
HOP-62 = tested on: HOP-62
HOP-92 = tested on: HOP-92
HT-29 = tested on: HT-29
Hs-578T = tested on: Hs-578T
IGROV-1 = tested on: IGROV-1
K562 = tested on: K562
KM12 = tested on: KM12
LOX IMVI = tested on: LOX IMVI
M14 = tested on: M14
MCF7 = tested on: MCF7
MDA-MB-231 = tested on: MDA-MB-231
MDA-MB-435 = tested on: MDA-MB-435
MDA-N = tested on: MDA-N
MOLT-4 = tested on: MOLT-4
Malme-3M = tested on: Malme-3M
NCI-H23 = tested on: NCI-H23
NCI-H460 = tested on: NCI-H460
NCI-H522 = tested on: NCI-H522
NCI/ADR-RES = tested on: NCI/ADR-RES
OVCAR-3 = tested on: OVCAR-3
OVCAR-4 = tested on: OVCAR-4
OVCAR-5 = tested on: OVCAR-5
OVCAR-8 = tested on: OVCAR-8
PC-3 = tested on: PC-3
RPMI-8226 = tested on: RPMI-8226
RXF 393 = tested on: RXF 393
SF-268 = tested on: SF-268
SF-295 = tested on: SF-295
SF-539 = tested on: SF-539
SK-MEL-28 = tested on: SK-MEL-28
SK-MEL-2 = tested on: SK-MEL-2
SK-MEL-5 = tested on: SK-MEL-5
SK-OV-3 = tested on: SK-OV-3
SN12C = tested on: SN12C
SNB-19 = tested on: SNB-19
SNB-75 = tested on: SNB-75
SR = tested on: SR
SW-620 = tested on: SW-620
T47D = tested on: T47D
TK-10 = tested on: TK-10
U-251 = tested on: U-251
UACC-62 = tested on: UACC-62
UO-31 = tested on: UO-31
NCI-H226 = tested on: NCI-H226
UACC-257 = tested on: UACC-257

Measured: GI50

CC1(C)OC(CP(c2ccccc2)c2ccccc2)C(CP(c2ccccc2)c2ccccc2)O1 (stereo not drawn)
inactive: 786-0 1.83 µM | A498 3.39 µM | ACHN 2.12 µM | BT-549 2.93 µM | CAKI-1 2.92 µM | DU-145 2.23 µM | HOP-92 2.36 µM | Hs-578T 2.02 µM | M14 1.79 µM | MDA-MB-231 1.22 µM | MDA-MB-435 2.16 µM | MDA-N 1.52 µM | Malme-3M 1.99 µM | NCI/ADR-RES > 100 µM | OVCAR-5 2.25 µM | RPMI-8226 1.17 µM | SF-268 3.81 µM | SF-539 2.1 µM | SK-MEL-28 > 28.2 µM | SK-MEL-2 1.81 µM | SK-MEL-5 2.13 µM | SK-OV-3 3.55 µM | SN12C 1.32 µM | SNB-75 1.36 µM | SW-620 1.17 µM | TK-10 > 19.8 µM | UACC-62 1.97 µM | UO-31 1.69 µM
active: A549 0.27 µM | CCRF-CEM 0.794 µM | COLO 205 0.0792 µM | EKVX 0.914 µM | HCC 2998 0.774 µM | HCT-116 0.165 µM | HL-60 0.0443 µM | HOP-62 0.418 µM | HT-29 0.656 µM | IGROV-1 0.222 µM | K562 0.372 µM | KM12 0.617 µM | LOX IMVI 0.224 µM | MCF7 0.0869 µM | MOLT-4 0.254 µM | NCI-H23 0.485 µM | NCI-H460 0.417 µM | NCI-H522 0.298 µM | OVCAR-3 0.0535 µM | OVCAR-4 0.986 µM | OVCAR-8 0.741 µM | PC-3 0.0548 µM | RXF 393 0.857 µM | SF-295 0.544 µM | SNB-19 0.601 µM | SR 0.552 µM | T47D 0.345 µM | U-251 0.191 µM
3.22 µM: HCT-15

O=C1C(Cl)=C(Sc2nnc3c4ccccc4c4ccccc4c3n2)C(=O)c2ccccc21
inactive: 786-0 16.4 µM | A498 20.3 µM | A549 24.6 µM | ACHN 15.7 µM | BT-549 17.8 µM | CAKI-1 17 µM | CCRF-CEM 3.78 µM | COLO 205 19.3 µM | DU-145 8.81 µM | EKVX 17.6 µM | HCC 2998 32.4 µM | HCT-116 16 µM | HL-60 2.74 µM | HOP-62 16.7 µM | HOP-92 16.9 µM | HT-29 25.1 µM | Hs-578T 34.3 µM | K562 21.1 µM | KM12 14.8 µM | LOX IMVI 4.57 µM | M14 15.2 µM | MCF7 12.6 µM | MDA-MB-231 3.51 µM | MDA-MB-435 1.85 µM | MDA-N 1.92 µM | MOLT-4 13.9 µM | Malme-3M 3.26 µM | NCI-H226 19.3 µM | NCI-H23 5 µM | NCI-H460 17.8 µM | NCI-H522 15.2 µM | NCI/ADR-RES 25.5 µM | OVCAR-3 14 µM | OVCAR-4 14.7 µM | OVCAR-5 23.2 µM | OVCAR-8 8.47 µM | PC-3 19 µM | RPMI-8226 13.7 µM | RXF 393 17.1 µM | SF-268 27.5 µM | SF-295 10.8 µM | SF-539 16.1 µM | SK-MEL-28 21.8 µM | SK-MEL-2 16.6 µM | SK-MEL-5 7.8 µM | SK-OV-3 21.6 µM | SN12C 16.6 µM | SNB-19 18.7 µM | SNB-75 2.97 µM | SR 7.43 µM | SW-620 23.1 µM | T47D 6.24 µM | TK-10 22 µM | U-251 13.3 µM | UACC-257 16.3 µM | UACC-62 15.8 µM | UO-31 14.1 µM
active: IGROV-1 1.08 µM
19 µM: HCT-15

[N-]=[N+]=NCC1OC(n2cnc3c(N)ncnc32)C2OC12 (stereo not drawn)
inactive: 786-0 > 100 µM | A498 > 100 µM | A549 > 100 µM | ACHN > 100 µM | BT-549 > 100 µM | CAKI-1 > 100 µM | CCRF-CEM > 100 µM | COLO 205 > 100 µM | DU-145 > 100 µM | EKVX > 100 µM | HCC 2998 > 100 µM | HCT-116 > 100 µM | HL-60 > 100 µM | HOP-62 > 100 µM | HOP-92 > 100 µM | HT-29 > 100 µM | Hs-578T > 100 µM | IGROV-1 > 100 µM | K562 > 100 µM | KM12 > 100 µM | LOX IMVI > 100 µM | M14 > 100 µM | MCF7 > 100 µM | MDA-MB-231 > 100 µM | MDA-MB-435 > 100 µM | MDA-N > 100 µM | MOLT-4 > 100 µM | Malme-3M > 100 µM | NCI-H226 > 100 µM | NCI-H23 > 100 µM | NCI-H460 > 100 µM | NCI-H522 > 100 µM | NCI/ADR-RES > 100 µM | OVCAR-3 > 100 µM | OVCAR-4 > 100 µM | OVCAR-5 > 100 µM | OVCAR-8 > 100 µM | PC-3 > 100 µM | RPMI-8226 > 100 µM | RXF 393 > 100 µM | SF-268 > 100 µM | SF-295 > 100 µM | SF-539 > 100 µM | SK-MEL-28 > 100 µM | SK-MEL-2 > 100 µM | SK-MEL-5 > 100 µM | SK-OV-3 > 100 µM | SN12C > 100 µM | SNB-19 > 100 µM | SNB-75 > 100 µM | SR > 100 µM | SW-620 > 100 µM | T47D > 100 µM | TK-10 > 100 µM | U-251 > 100 µM | UACC-257 > 100 µM | UACC-62 > 100 µM | UO-31 > 100 µM
> 100 µM: HCT-15

CCCc1nnc2sc(COc3cc(Cl)c(OCc4nn5c(CCC)nnc5s4)cc3Cl)nn12
0.904 µM: HCT-15
active: K562 0.596 µM | MOLT-4 0.4 µM | NCI-H23 0.748 µM | RPMI-8226 0.0885 µM | SR 0.046 µM
inactive: 786-0 35.7 µM | A498 37.8 µM | A549 35.2 µM | ACHN 25.4 µM | BT-549 29.2 µM | CAKI-1 38.5 µM | CCRF-CEM 15.6 µM | COLO 205 50.5 µM | DU-145 47 µM | EKVX 22.6 µM | HCC 2998 77.8 µM | HCT-116 46 µM | HL-60 25.6 µM | HOP-62 38.4 µM | HOP-92 22 µM | HT-29 53 µM | Hs-578T 32 µM | IGROV-1 25.2 µM | KM12 70.1 µM | LOX IMVI 37.1 µM | M14 44.7 µM | MCF7 23.6 µM | MDA-MB-231 47.1 µM | MDA-MB-435 35.3 µM | MDA-N 37.6 µM | Malme-3M 25.9 µM | NCI-H226 > 100 µM | NCI-H460 42.8 µM | NCI-H522 27.3 µM | NCI/ADR-RES 5.9 µM | OVCAR-3 24.8 µM | OVCAR-4 22.5 µM | OVCAR-5 > 100 µM | OVCAR-8 27.4 µM | PC-3 > 100 µM | RXF 393 31.6 µM | SF-268 21.7 µM | SF-295 28.6 µM | SF-539 47.8 µM | SK-MEL-28 5.66 µM | SK-MEL-2 > 100 µM | SK-MEL-5 12.3 µM | SK-OV-3 24.5 µM | SN12C 57 µM | SNB-19 31.5 µM | SNB-75 21.7 µM | SW-620 > 100 µM | T47D 15.2 µM | TK-10 52 µM | U-251 37.2 µM | UACC-257 34.1 µM | UACC-62 24.2 µM
